This is an account of results in ChEMBL document CHEMBL3526052 (Drug Metab Dispos, 2013).

In series [1] the target is T1, ENT1 (equilibrative nucleoside transporter 1) (Homo sapiens, UniProt Q99808).
T1 sequence (Q99808 whole entry): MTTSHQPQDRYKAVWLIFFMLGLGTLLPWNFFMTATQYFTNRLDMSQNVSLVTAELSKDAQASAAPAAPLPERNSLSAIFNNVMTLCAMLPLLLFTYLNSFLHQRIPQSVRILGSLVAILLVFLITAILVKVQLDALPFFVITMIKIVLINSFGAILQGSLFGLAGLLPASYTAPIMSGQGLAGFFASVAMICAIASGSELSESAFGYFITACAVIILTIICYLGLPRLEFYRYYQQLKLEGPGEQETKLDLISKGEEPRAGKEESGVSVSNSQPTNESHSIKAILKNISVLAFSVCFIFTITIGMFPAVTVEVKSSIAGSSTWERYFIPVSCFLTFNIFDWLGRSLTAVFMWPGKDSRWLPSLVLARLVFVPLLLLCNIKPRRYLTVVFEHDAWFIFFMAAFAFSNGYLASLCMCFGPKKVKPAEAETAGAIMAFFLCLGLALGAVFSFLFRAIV
In words: Drug transport in human CCRF-CEM cells assessed as ENT1-mediated uptake after 5 secs by Michaelis-Menten equation analysis. Type of series: ADME, cell-based.

Series [2] concerns the target T2, Equilibrative nucleoside transporter 1 (Homo sapiens, UniProt Q99808).
T2 sequence (Q99808 whole entry): T1 sequence (Q99808 whole entry)
In words: Binding affinity to recombinant human ENT1 expressed in Saccharomyces cerevisiae assessed as inhibition of [3H]-uridine transport after 15 mins by scintillation counting analysis. The class given is ADME.

For series [3], the target named is T3, Equilibrative nucleoside transporter 2 (Homo sapiens, UniProt Q14542).
T3 sequence (Q14542 whole entry): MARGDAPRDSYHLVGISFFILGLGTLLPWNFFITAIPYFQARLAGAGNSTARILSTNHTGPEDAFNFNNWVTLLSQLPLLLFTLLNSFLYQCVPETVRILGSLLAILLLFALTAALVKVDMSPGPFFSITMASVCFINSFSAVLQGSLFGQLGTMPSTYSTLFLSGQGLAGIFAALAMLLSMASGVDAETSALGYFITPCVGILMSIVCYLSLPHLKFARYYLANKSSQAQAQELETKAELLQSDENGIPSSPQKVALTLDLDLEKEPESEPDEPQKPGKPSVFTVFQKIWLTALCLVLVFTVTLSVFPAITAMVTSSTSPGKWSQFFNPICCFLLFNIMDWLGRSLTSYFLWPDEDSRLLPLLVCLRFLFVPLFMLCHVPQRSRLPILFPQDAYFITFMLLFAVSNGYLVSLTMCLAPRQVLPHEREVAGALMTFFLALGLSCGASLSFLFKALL
The series can be described thus: Binding affinity to recombinant human ENT2 expressed in Saccharomyces cerevisiae assessed as inhibition of [3H]-uridine transport after 15 mins by scintillation counting analysis. The class given is ADME.

A short description of series [4]: Apparent volume of distribution at steady state in CD-1 mouse at 0.1 mg/kg, iv administered as bolus dose in presence of ENT1 inhibitor NBMPR-P. The class given is ADME, organism-based. The note with it: in vivo, read-out: Vdss(app). Details: dose 0.1 mg/kg, route intravenous.
Series [5] has as its system Brain. The series can be described thus: AUC (0 to 4 hrs) in CD-1 mouse brain at 0.1 mg/kg, iv administered as bolus dose in absence of ENT1 inhibitor NBMPR-P. The class given is ADME, organism-based. More on the design: time < 4 hr, dose 0.1 mg/kg, route intravenous. Conditions: in vivo.
For a further series, the species on record is Xenopus laevis. In words: Drug uptake in water-injected Xenopus laevis oocytes up to 1 mM measured per 2 mins. Type of series: ADME, organism-based. Conditions: in vivo.
The nature of series [6]: Elimination half life in CD-1 mouse at 0.1 mg/kg, iv administered as bolus dose in absence of ENT1 inhibitor NBMPR-P. The class given is ADME, organism-based. More on the design: dose 0.1 mg/kg, route intravenous. Conditions: in vivo, read-out: beta t1/2 (converted).
Series [7] can be described thus: AUC (0 to infinity) in CD-1 mouse at 0.1 mg/kg, iv administered as bolus dose in absence of ENT1 inhibitor NBMPR-P. Details: time infinity, dose 0.1 mg/kg, route intravenous. Type of series: ADME, organism-based. The note with it: plasma.
Series [8] deals with T2, Equilibrative nucleoside transporter 1. In words: Drug transport in human CCRF-CEM cells assessed as ENT1-mediated uptake measured per 10^6 cells after 5 secs by Michaelis-Menten equation analysis. The class given is ADME, cell-based. Conditions: 5 s.
The target is the same in series [9]. In words: Drug transport in Xenopus laevis oocytes assessed as recombinant human ENT1-mediated uptake up to 1 mM measured per 2 mins by Michaelis-Menten equation analysis. Type of series: ADME, cell-based.
For series [10], the system named is Brain. In words: AUC (0 to 4 hrs) in CD-1 mouse brain at 0.1 mg/kg, iv administered as bolus dose in presence of ENT1 inhibitor NBMPR-P. The class given is ADME, organism-based. Details: time < 4 hr, dose 0.1 mg/kg, route intravenous. Conditions: in vivo.
Series [11] is described as follows: Tmax in CD-1 mouse brain at 0.1 mg/kg, iv administered as bolus dose in absence of ENT1 inhibitor NBMPR-P. The class given is ADME, organism-based. Details: dose 0.1 mg/kg, route intravenous.
Series [12] deals with T4, Solute carrier family 28 member 3 (Homo sapiens, UniProt Q9HAS3).
T4 sequence (Q9HAS3 whole entry): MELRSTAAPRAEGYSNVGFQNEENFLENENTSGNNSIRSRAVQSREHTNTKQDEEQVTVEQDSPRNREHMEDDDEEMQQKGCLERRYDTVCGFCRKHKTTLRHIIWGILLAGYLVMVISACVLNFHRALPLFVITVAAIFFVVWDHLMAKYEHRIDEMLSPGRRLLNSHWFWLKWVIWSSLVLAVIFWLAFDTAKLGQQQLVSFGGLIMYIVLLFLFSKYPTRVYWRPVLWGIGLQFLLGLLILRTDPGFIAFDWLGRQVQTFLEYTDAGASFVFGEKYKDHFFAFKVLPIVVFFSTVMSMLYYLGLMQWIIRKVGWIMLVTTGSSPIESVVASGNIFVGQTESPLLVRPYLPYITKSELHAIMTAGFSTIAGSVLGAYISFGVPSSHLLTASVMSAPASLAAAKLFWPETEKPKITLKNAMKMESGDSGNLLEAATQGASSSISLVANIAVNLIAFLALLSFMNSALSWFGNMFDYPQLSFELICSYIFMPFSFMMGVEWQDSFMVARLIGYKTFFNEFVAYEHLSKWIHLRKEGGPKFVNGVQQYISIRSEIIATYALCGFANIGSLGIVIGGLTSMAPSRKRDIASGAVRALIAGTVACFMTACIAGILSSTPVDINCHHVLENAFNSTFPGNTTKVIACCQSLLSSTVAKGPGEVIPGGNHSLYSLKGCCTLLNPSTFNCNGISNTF
In words: Binding affinity to recombinant human CNT3 expressed in Saccharomyces cerevisiae assessed as inhibition of [3H]-uridine transport after 5 mins by scintillation counting analysis. Type of series: ADME.

The nature of series [13]: Apparent volume of distribution at steady state in CD-1 mouse at 0.1 mg/kg, iv administered as bolus dose in absence of ENT1 inhibitor NBMPR-P. The class given is ADME, organism-based. Details: dose 0.1 mg/kg, route intravenous. The note with it: in vivo, read-out: Vdss(app).
The nature of series [14]: Elimination half life in CD-1 mouse at 0.1 mg/kg, iv administered as bolus dose in presence of ENT1 inhibitor NBMPR-P. Details: dose 0.1 mg/kg, route intravenous. Type of series: ADME, organism-based. Conditions: in vivo, read-out: beta t1/2 (converted).
Series [15] is described as follows: Cmax in CD-1 mouse brain at 0.1 mg/kg, iv administered as bolus dose in absence of ENT1 inhibitor NBMPR-P. Details: dose 0.1 mg/kg, route intravenous. The class given is ADME, organism-based.
A short description of series [16]: Cmax in CD-1 mouse brain at 0.1 mg/kg, iv administered as bolus dose in presence of ENT1 inhibitor NBMPR-P. The class given is ADME, organism-based. Details: dose 0.1 mg/kg, route intravenous.
The nature of series [17]: AUC (0 to infinity) in CD-1 mouse at 0.1 mg/kg, iv administered as bolus dose in presence of ENT1 inhibitor NBMPR-P. Type of series: ADME, organism-based. Conditions: plasma. Details: time infinity, dose 0.1 mg/kg, route intravenous.

As to `OC[C@H]1O[C@@H](n2cnc3c(N[C@@H]4CCOC4)ncnc32)[C@H](O)[C@@H]1O` [TECADENOSON], in [1], the Michaelis-Menten constant (Km) at 5 s was found to be 24 µM. The values for the IC50 in series [2], in series [3] and in [12] were 12 µM, 190 µM and 200 µM, respectively. For the same molecule, the results for the Ki in [2] (read-out: Ki(app)), in series [3] (read-out: Ki(app)) and in series [12] (read-out: Ki(app)) were 11 µM, 189 µM and 126 µM, respectively. Besides, the Vd in series [4] came out at 2.2 L/kg; in series [13] it was 2.8 L/kg. Also, the AUC with Brain [5] turned out to be 22 ng·h/g; with Brain [10] it was 7 ng·h/g. This molecule also displayed a Drug uptake in the series filed under Xenopus laevis of 5 pmol. For the same molecule, the half-life is 42 min in [6] and 66 min in series [14]. The AUC(0-inf) was determined as 16.4 ng·h/mL in series [7] and 50.5 ng·h/mL in series [17]. For the same molecule, the Vmax is recorded as 3.4 pmol in series [8] and 46.7 pmol in series [9]. In addition, the Tmax in [11] amounted to 6.6 min. The Cmax in [15] came out at 23 ng/g; in series [16], 4 ng/g.
